Test results published in ChEMBL document CHEMBL1201862, “PubChem BioAssay data set” (2004).
Calls of active or inactive are those of the source.

Experiments:
[1] = cytotoxicity toward NIH3T3 fibroblasts, dose response, counter-screen, cell-based, ATP luminescence, mouse fibroblasts (AID 2010); assay type: functional;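 also: cells exposed to compound for about 90 hours before reading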
[2] = inhibitors of intracellular T. cruzi replication, confirmation, NIH3T3 host cells, beta-gal luminescence (AID 2044); assay type: functional, cell-based;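 also: intracellular parasites grown in NIH/3T3 mouse fibroblasts as host cells; luminescent beta-galactosidase reporter signal from transgenic T. cruzi replicating inside host cells; inhibitors lower the luminescence signal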
[3] = target: T1, Streptokinase A (Streptococcus pyogenes serotype M1, UniProt P10520); assay: S. pyogenes streptokinase expression inhibitors, potency, dose response, plasminogen activation absorbance, OD405 (AID 1914); assay type: functional, Streptococcus pyogenes M1 GAS;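 also: secreted streptokinase activity via plasminogen activation per viability signal from cell pellet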
T1 sequence (P10520 whole entry): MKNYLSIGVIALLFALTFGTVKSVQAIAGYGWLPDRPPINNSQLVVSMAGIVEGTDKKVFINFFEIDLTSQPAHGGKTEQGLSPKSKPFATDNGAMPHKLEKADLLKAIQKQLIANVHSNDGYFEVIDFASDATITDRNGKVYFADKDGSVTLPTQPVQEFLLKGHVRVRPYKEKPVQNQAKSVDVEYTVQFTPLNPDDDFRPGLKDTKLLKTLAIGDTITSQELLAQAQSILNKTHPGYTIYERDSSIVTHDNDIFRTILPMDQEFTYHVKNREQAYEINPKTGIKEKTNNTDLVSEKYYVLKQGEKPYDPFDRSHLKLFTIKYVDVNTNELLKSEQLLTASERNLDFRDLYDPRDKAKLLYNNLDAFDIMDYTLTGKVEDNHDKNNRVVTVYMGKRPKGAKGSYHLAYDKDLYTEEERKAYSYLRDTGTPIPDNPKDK

[4] = test system: Streptococcus; assay: Group A Streptococcus viability loss, dose response, counter-screen for streptokinase expression inhibitor project, luminescence, BacTiterGlo (AID 1915); assay type: functional, organism-based;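 also: potency for reduction of bacterial viability or growth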
[5] = test system: Streptococcus sp. 'group A'; assay: growth inhibition of control SK(-) GAS strain, dose response, counter-screen for streptokinase expression inhibitor project, luminescence, kanamycin, BacTiterGlo, confirmation (AID 1900); assay type: functional, organism-based
[6] = target: T2, Cytochrome P450 1A2 (Homo sapiens, UniProt P05177);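 also: PubChem cytochrome P450 panel assay, CYP1A2 panel member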
T2 sequence (P05177 whole entry): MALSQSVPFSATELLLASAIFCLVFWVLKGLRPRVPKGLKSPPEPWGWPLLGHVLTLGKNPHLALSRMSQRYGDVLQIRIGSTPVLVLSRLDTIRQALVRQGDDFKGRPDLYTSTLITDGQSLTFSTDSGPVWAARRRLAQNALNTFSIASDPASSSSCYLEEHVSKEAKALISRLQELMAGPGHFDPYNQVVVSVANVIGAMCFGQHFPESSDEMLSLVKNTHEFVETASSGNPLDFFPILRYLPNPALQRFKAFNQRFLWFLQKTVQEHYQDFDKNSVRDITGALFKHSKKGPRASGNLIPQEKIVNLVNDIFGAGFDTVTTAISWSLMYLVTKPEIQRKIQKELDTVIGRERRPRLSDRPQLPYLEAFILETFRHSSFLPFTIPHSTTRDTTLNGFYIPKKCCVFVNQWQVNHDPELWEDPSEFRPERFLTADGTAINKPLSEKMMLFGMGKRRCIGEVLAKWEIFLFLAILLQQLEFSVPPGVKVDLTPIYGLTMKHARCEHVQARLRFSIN

[7] = target: Cytochrome P450 2C9 (Homo sapiens, UniProt P11712)
[8] = target: Cytochrome P450 2C19 (Homo sapiens, UniProt P33261); assay: Cytochrome panel assay with activity outcomes. Panel member name: p450-cyp2c19 Compounds with AC50 equal or less than 10 uM are considered active; assay type: functional
[9] = target: T3, Rac GTPase-activating protein 1 (Homo sapiens, UniProt Q9H0H5); assay: MgcRacGAP GTPase-activating activity inhibitors, confirmation, biochemical, ADP Hunter fluorescence, primary and confirmatory (AID 624330); assay type: functional
T3 sequence (Q9H0H5 whole entry): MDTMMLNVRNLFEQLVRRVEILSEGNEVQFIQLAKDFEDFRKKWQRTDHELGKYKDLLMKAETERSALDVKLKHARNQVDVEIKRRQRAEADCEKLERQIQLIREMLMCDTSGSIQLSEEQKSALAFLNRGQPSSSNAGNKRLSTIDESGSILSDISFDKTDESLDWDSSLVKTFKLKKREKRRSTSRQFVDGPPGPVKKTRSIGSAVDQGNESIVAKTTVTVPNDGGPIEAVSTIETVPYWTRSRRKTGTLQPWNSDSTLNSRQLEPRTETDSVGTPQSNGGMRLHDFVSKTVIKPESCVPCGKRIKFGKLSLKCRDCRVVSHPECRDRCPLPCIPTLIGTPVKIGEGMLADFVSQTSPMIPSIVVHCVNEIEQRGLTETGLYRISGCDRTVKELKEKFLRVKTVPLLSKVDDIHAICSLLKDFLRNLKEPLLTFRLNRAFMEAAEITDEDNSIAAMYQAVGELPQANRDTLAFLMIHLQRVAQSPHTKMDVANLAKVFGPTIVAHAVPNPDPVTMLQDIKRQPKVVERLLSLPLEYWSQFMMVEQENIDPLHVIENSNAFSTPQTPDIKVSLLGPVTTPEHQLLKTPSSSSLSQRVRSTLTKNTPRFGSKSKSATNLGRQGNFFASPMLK

[10] = inhibitors of SNCA 5'UTR-driven reporter translation, confirmation, H4 neuroglioma cells, luminescence (AID 1988); assay type: functional, cell-based
[11] = inhibitors of firefly luciferase expression or activity, dose response, H4 neuroglioma cells, luminescence (AID 1990); assay type: functional, cell-based

Cytochrome P450 2C9, sequence (P11712 whole entry): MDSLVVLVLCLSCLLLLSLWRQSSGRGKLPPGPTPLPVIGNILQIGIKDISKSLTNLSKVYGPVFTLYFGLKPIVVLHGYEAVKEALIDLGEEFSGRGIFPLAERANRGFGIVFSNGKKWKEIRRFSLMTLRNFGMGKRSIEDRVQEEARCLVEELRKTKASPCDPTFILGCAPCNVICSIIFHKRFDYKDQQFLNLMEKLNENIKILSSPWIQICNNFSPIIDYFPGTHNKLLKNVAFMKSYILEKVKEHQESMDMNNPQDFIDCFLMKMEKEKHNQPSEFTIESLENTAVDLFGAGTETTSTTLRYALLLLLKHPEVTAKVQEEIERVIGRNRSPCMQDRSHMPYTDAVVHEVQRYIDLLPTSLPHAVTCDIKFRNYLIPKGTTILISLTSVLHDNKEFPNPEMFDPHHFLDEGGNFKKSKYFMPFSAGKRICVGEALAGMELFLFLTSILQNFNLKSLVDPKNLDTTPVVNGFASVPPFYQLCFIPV
Cytochrome P450 2C19, sequence (P33261 whole entry): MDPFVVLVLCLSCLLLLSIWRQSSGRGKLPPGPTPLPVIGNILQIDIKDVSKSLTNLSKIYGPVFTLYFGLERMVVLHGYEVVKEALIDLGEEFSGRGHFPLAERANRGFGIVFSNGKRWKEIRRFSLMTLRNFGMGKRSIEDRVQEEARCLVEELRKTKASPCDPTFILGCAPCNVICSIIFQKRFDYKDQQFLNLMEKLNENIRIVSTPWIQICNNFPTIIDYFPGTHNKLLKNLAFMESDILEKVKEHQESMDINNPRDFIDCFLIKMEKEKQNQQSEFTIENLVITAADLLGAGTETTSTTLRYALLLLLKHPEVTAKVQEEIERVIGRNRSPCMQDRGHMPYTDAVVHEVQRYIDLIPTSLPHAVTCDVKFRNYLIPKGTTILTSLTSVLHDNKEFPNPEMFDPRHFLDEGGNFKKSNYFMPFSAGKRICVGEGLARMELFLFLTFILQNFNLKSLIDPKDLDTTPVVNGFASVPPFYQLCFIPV

COc1ccc(C2CC(c3ccccc3)=NN2C(=O)COC(=O)c2cccc(S(=O)(=O)N3CCOCC3)c2)cc1 (centres undefined)
EC50 [1]: > 30 µM (not active)
EC50 [2]: 3.37 µM (active)

CC(C)C[C@H](NC(=O)c1[nH]cnc1C(=O)N1CCc2ccccc2C1)C(=O)OCc1ccccc1
EC50 [3]: > 150 µM (not active)
EC50 [4]: > 150 µM (not active)
EC50 [5]: 9.76 µM (active)

CC(=O)CSc1nnc(Cc2ccc([N+](=O)[O-])cc2)o1
AC50 [6]: 15.8 µM (inconclusive)
AC50 [7]: 35.5 µM (inconclusive)

CCC(C)(C)n1nnnc1C(c1cccc(C#N)c1)N1CCN(c2cc(C)ccc2C)CC1 (centres undefined)
EC50 [1]: 32.6 µM (active)
EC50 [2]: 1.73 µM (active)

CN(C)C(=O)c1ccc(-c2ccc3ncnc(NC4CCNCC4)c3c2)cc1
AC50 [6]: 20 µM (inconclusive)

CN1CCN(c2ncc3nc(-c4ccccc4)c(=O)n(Cc4ccc(F)cc4)c3n2)CC1
AC50 ([8]; read-out: AC50): 39.8 µM (inconclusive)

Cc1ccc(NCc2ccccc2O)cc1C
IC50 [9]: 118 µM (active)

CN(C)CCN(C(=O)c1ccc(S(=O)(=O)N2CCCC2)cc1)c1nc2ccc(Br)cc2s1
EC50 [1]: > 30 µM (not active)
EC50 [2]: 0.122 µM (active)

CCOC(=O)CSc1nnc(CNC(=O)c2ccc(OC)cc2)n1C1CCCCC1
AC50 [6]: 5.01 µM (inconclusive)
AC50 ([8]; read-out: AC50): 10 µM (inconclusive)

Cc1sc2nc(CN3CCOCC3)nc(N3CCOCC3)c2c1C
IC50 [9]: 191 µM (active)

CC(=O)N(CCC(Cc1ccccc1)c1ccc2c(c1)OCO2)Cc1ccc(Cl)cc1 (centres undefined)
EC50 [3]: 58.5 µM (active)
EC50 [4]: 12.4 µM (active)
EC50 [5]: 7.09 µM (active)

Cc1ccccc1N=C(S)N1CCCC(c2nc3ccccc3[nH]2)C1 (centres undefined)
EC50 [1]: > 60 µM (not active)
EC50 [2]: 1.28 µM (active)

Cn1cc(-c2nc3cnc(Oc4ccccc4)nc3n(Cc3cccs3)c2=O)c2ccccc21
AC50 [6]: 3.16 µM (inconclusive)

Cc1ccc(-c2cc(C(=O)N3CCN(c4ccccc4O)CC3)c3ccccc3n2)cc1
EC50 [3]: > 150 µM (not active)
EC50 [4]: 26.4 µM (active)
EC50 [5]: 5.39 µM (active)

OC[C@@H](O)[C@@H](O)[C@@H](O)[C@@H](O)c1nc2cc(Cl)ccc2[nH]1
AC50 [6]: 6.31 µM (inconclusive)

CN/C(=N/c1cc(Cl)ccc1Cl)SC1CC(=O)N(c2ccc(C(=O)OC)cc2)C1=O (centres undefined)
EC50 [3]: > 50 µM (not active)

Cc1cccc(C(=O)NCC(=O)N2CCOCC2)c1
EC50 [3]: > 150 µM (not active)
EC50 [4]: > 150 µM (not active)
EC50 [5]: > 150 µM (not active)

O=C(COc1ncnc2cc([N+](=O)[O-])ccc12)NC(=O)NC1CCCCC1
EC50 [1]: > 60 µM (not active)
EC50 [2]: 0.122 µM (active)

COc1ccc(NC(=O)c2cc(-c3cc(C)cc(C)c3O)[nH]n2)cc1Cl
EC50 [4]: 3.07 µM (active)
EC50 [5]: 2.41 µM (active)

CCC(CC)NC(=O)c1oc2ccccc2c1COc1ccccc1
EC50 [3]: 10.6 µM (active)
EC50 [4]: 17 µM (active)
EC50 [5]: 9.43 µM (active)

O=C(c1cccc(F)c1)N1CCC2(CCCN(c3ccccc3)C2)CC1
AC50 [6]: 15.8 µM (inconclusive)

O=C(/C=C(\c1ccc(Cl)cc1)n1cncn1)c1ccc(Cl)cc1
EC50 [1]: > 60 µM (not active)
EC50 [2]: 0.475 µM (active)

Cc1ccccc1OCC(O)Cn1c(NCc2ccccc2)nc2c1c(=O)[nH]c(=O)n2C (centres undefined)
AC50 [7]: 5.62 µM (inconclusive)

O=C(CC(C(=O)N1CCc2ccccc21)n1ccnc1)N1CCc2ccccc2C1 (centres undefined)
EC50 [1]: 11.5 µM (active)
EC50 [2]: 0.276 µM (active)

COc1ccc(C2=NCC(CSc3nnc(-c4ccc5c(c4)OCO5)o3)S2)cc1 (centres undefined)
EC50 [1]: > 60 µM (not active)
EC50 [2]: 0.62 µM (active)

Cc1ccc(Cn2cccc(NC(=O)NC3CCCCC3)c2=O)cc1
AC50 [6]: 15.8 µM (inconclusive)
AC50 [7]: 2.51 µM (inconclusive)

COc1cc(/C=C/CN2CCN(Cc3ccc(C)o3)C(CCO)C2)ccc1O (centres undefined)
IC50 [9]: 363 µM (active)

COc1ccc(OC)c2c(C)c(C)[nH]c12
IC50 [9]: 29.5 µM (active)

CCn1ncc(C(=O)Nc2cc(C)on2)c1C
AC50 [6]: 15.8 µM (inconclusive)
AC50 ([8]; read-out: AC50): 15.8 µM (inconclusive)

COC(=O)[C@@]1(Cc2ccc(F)cc2)[C@H]2c3cc(C(=O)N4CCCC4)n(CCO)c3C[C@H]2CN1C(=O)c1ccccc1
AC50 [6]: 25.1 µM (inconclusive)
AC50 ([8]; read-out: AC50): 39.8 µM (inconclusive)

CC1CC(C)(C)Nc2ccc(N=O)cc21 (centres undefined)
EC50 [1]: 3.13 µM (active)
EC50 [2]: 2.29 µM (active)

COc1ccc2[nH]c(C(=O)N3CCCN(Cc4ccc(F)cc4)CC3)cc2c1
EC50 [1]: > 60 µM (not active)
EC50 [2]: 0.23 µM (active)

Cc1cccc(CN2CCN(C(C)C(=O)NC(C)c3ccccc3)CC2)c1 (centres undefined)
IC50 [9]: 84.2 µM (active)

Cc1ccc(-c2cc3nc(-c4ccc(Br)cc4)cc(N)n3n2)cc1
EC50 [4]: 1.06 µM (active)
EC50 [5]: 1.59 µM (active)

Nc1ccccc1Nc1cc(-c2cccc(Cl)c2)nn1-c1ccccc1
EC50 [1]: > 60 µM (inconclusive)
EC50 [2]: 4.26 µM (active)

CS(=O)(=O)Nc1cccc(-c2nc(NCc3cccs3)c3ccccc3n2)c1
AC50 [7]: 1.26 µM (inconclusive)

O=c1c(-c2cc(F)cc(F)c2)nc2cnc(Oc3ccccc3)nc2n1C1CC1
AC50 [7]: 10 µM (inconclusive)

COC(=O)[C@@H]1[C@@H](O)[C@]2(O)c3ccccc3O[C@]2(c2ccccc2)[C@H]1c1ccccc1
AC50 ([8]; read-out: AC50): 0.316 µM (inconclusive)
AC50 [7]: 0.0794 µM (inconclusive)

CCn1c(SCc2ccc(C)cc2)nnc1-c1nn(-c2ccccc2)ccc1=O
AC50 [8]: inconclusive

CCN(CC)c1ccc(/C=C2/C(=O)NC(=O)N(Cc3ccco3)C2=O)cc1
IC50 [9]: 126 µM (active)

O=c1c(-c2cc(F)cc(F)c2)nc2cnc(N3CCOCC3)nc2n1CCc1ccccc1
AC50 [6]: 2.51 µM (inconclusive)

O=C(CN1CCN(c2ccc(O)cc2)CC1)Nc1ccccc1C(=O)NCCc1ccccc1
IC50 [9]: 41.5 µM (active)

Cc1ccc2cc3c(N)c(C(=O)N4CC(=O)Nc5ccccc54)sc3nc2c1
EC50 [10]: < 100 nM (active)
EC50 [11]: < 100 nM (active)

Cc1nc(N2CCCCC2)c2c(C)c(C(=O)Nc3cccc(C(F)(F)F)c3)sc2n1
EC50 [1]: > 60 µM (not active)
EC50 [2]: 1.54 µM (active)

COc1ccc(N[C@@H]2CCN3C(=O)c4ccccc4[C@@H]3C[C@H]2O)cc1
IC50 [9]: 74.8 µM (active)

Cc1ccc(OC(=O)N2CCOCC2)cc1
AC50 [6]: 17.8 µM (inconclusive)
AC50 ([8]; read-out: AC50): 28.2 µM (inconclusive)
AC50 [7]: 39.8 µM (inconclusive)

O=C(NC(=S)N1CCN(c2ccc(O)cc2)CC1)c1ccco1
IC50 [9]: 33.1 µM (active)

Cc1nc(C/C(=N\N)c2ccc(O)cc2O)cs1
IC50 [9]: 64 µM (active)

COc1cc(/C=C\c2ccc(OC)cc2OC)cc(OC)c1
AC50 [8]: inconclusive

Cc1ccc(CONC(=O)/N=C/N(C)C)cc1
AC50 [6]: 28.2 µM (inconclusive)

O=C1c2ccccc2NC(c2ccc(O)cc2)N1/N=C/c1ccc(O)cc1 (centres undefined)
IC50 [9]: 66.4 µM (active)
